Test results taken from ChEMBL document CHEMBL3507680, “University of Dundee, Gates Library screen for HepG2 cell viability”.

experiment: Human HepG2 cell viability assay in 384 well format; format: toxicity, cell-based; set-up: dose 125 nL, time 70.5 hour; cytotoxicity at 70.5 h: concentration not given beside the values; conditions: HepG2 cells, read-out: Inhibition

Compound | cytotoxicity at 70.5 h
O=C(c1ccnnc1)N1C[C@H](Oc2ccccn2)[C@H]2OCCC[C@H]21 | -8.72%
Cc1cc(CN2CCN(CC(O)c3ccccc3)CC2)no1 (configuration not stated) | 0.624%
O=C(c1ccnnc1)N1CCn2cc(CN3CCCCC3)nc2C1 | -4.84%
CC(C)Oc1ncnc2c1CCN(Cc1ccco1)CC2 | -2.84%
Cc1cccc(-c2noc(CN3CCOCC3C)n2)c1 (configuration not stated) | -5.27%
CN(C)C(=O)CCC(=O)NCc1cccnc1-n1cnc2ccccc21 | -8.79%
Cc1cccc(-n2ncc3c2CCCC3NCc2cccc(O)c2)c1C (configuration not stated) | -3.55%
O=c1n(Cc2ccccn2)nc(C2CCNCC2)n1Cc1ccccc1 | 1.51%
O=C(Cc1cccs1)NC1CCN(c2cccc(F)c2)CC1 | 1.18%
CC(C)[C@@H]1CN(S(=O)(=O)Cc2ccccc2)C[C@H]1NS(=O)(=O)N(C)C | -2.27%
O=C(c1cc(=O)n(-c2ccccc2)[nH]1)N1CCOCC(O)C1 (configuration not stated) | 22.9%
Cc1nc2cc(O)nn2c(C)c1CCC(=O)N(C)Cc1ccccc1 | 2.7%
Cc1occc1C(=O)N1CCC[C@]2(C[C@@H](OCc3ccccn3)CO2)C1 | -9.42%
CC(C)CCC(=O)N1CC[C@@H]2[C@H](CC1)N(S(C)(=O)=O)CCS2(=O)=O | -10.2%
CCn1nc2c(cc1=O)CN(Cc1nc(-c3ccco3)no1)CC2 | -10.1%
COc1ccc(NC(=O)NCC(O)c2ccc(F)cc2F)c(OC)c1 (configuration not stated) | 2.76%
CCCC(=O)N1CCC(Nc2ncc(Br)cn2)CC1 | 0.868%
COc1ccc(OC)c(NC(=O)c2nc3ccccc3n(C)c2=O)c1 | -7.65%
CC(NC(=O)c1cccs1)C(=O)NS(=O)(=O)Cc1ccc(C#N)cc1 (configuration not stated) | 4.04%
Cc1nonc1CNC(=O)C(C)Oc1ccccc1F (configuration not stated) | -7.96%
CC1CN(Cc2noc(C3CC3)n2)CCN1Cc1noc(C2CC2)n1 (configuration not stated) | -13.7%
Cn1cc(Cl)cc1C(=O)N1CCCN(Cc2nccn2C)CC1 | -1.83%
Cc1cnn(CC2CCCCN2Cc2noc(C3CC3)n2)c1 (configuration not stated) | -6.32%

Compound | cytotoxicity at 70.5 h
O=C(NC1CCCCC1)N1C[C@H]2CN(c3cnccn3)C[C@@]2(C(=O)O)C1 | -14.9%
Cc1cnc(N2Cc3nccn3CC(Cn3ncccc3=O)C2)nc1 (configuration not stated) | -1%
O=C(CN1CCc2onc(-c3ccccc3F)c2C1)NC1CC1 | -9.25%
CN(C)S(=O)(=O)c1ccc(CN2CCCC2c2ccsc2)o1 (configuration not stated) | -7.08%
CC(=O)NCC(=O)N1CCC2(CC1)NC(=O)CC2c1cnn(C)c1 (configuration not stated) | -8.17%
O=C(Cc1cccc(F)c1)NCCNCc1cccc(O)c1 | 0.873%
Cc1nc(CNC(=O)NC(C)c2ccc3c(c2)OCCCO3)cs1 (configuration not stated) | -0.884%
O=C(NCC1CCCO1)c1csc(Cc2ccccc2)n1 (configuration not stated) | 50.7%
COC1CCN(C(=O)c2cc(-c3ccc(Cl)cc3)on2)CC1 | -8.24%
CC(C)(C)C(=O)N1CCCC1(C(=O)N1CCCC1)c1cnccn1 (configuration not stated) | 18.9%
COc1ccccc1C(=O)N1CCC(O)(c2cccc(C)c2C)CC1 | 11.7%
CN(CCN1CCN(c2ccccc2)CC1)C(=O)Nc1ccccn1 | 17.7%
Cc1ccc(N2CCC(c3nccn3Cc3cscn3)CC2)nn1 | 0.241%
CN(C(=O)c1cc(F)ccc1F)[C@@H]1CC[C@@H](O)[C@@H]1O | -2.95%
NC(=O)C(NC(=O)COC1CCCC1)c1ccccc1 (configuration not stated) | -6.85%
CCCS(=O)(=O)N1CCC2(CC1)CN(c1ccccn1)CCO2 | 23.8%
Cc1ccc(CN2CCN(c3cc(NCCO)ncn3)CC2CCO)o1 (configuration not stated) | -5.58%
Fc1ccc(C2(CNCCc3cccs3)CCOC2)cc1 (configuration not stated) | -6.84%
O=c1[nH]cc(N2CCCCCC2)c(=O)[nH]1 | 9.28%
CCN1CCO[C@@H]2CN(C(=O)COC3CCCC3)C[C@@H]2C1 | 7.26%
O=C1CO[C@H]2CN(C3CCOCC3)C[C@H]2N1Cc1ccccn1 | 1.72%
Cn1nc(Cn2ccnc2)c2c1CN(C(=O)c1ccc[nH]1)C2 | -10.6%
CC(NC(=O)NCCCc1n[nH]c(N)c1C#N)c1cccc(Cl)c1 (configuration not stated) | -4.21%

Compound | cytotoxicity at 70.5 h
CN(CC(F)(F)F)C(=O)COc1nc(Cc2ccc(F)cc2)no1 | -7.01%
NC(=O)CC1CCCCN1C(=O)c1ccc2cc[nH]c2c1 (configuration not stated) | 21.6%
Cc1cc(NCc2cccnc2)n2nc(C)cc2n1 | -8.91%
Cc1cc(NC(=O)CN(CC2CCOC2)C2CC2)no1 (configuration not stated) | 0.647%
O=C(O)c1ccnc(SCC(F)(F)F)c1 | -10.8%
O=C(c1cscn1)N1C[C@@H](Oc2cccnc2)[C@H]2OCCC[C@H]21 | 26.4%
O=S(=O)(c1cccnc1)N1C[C@H]2CCC[C@@]2(COc2ccccn2)C1 | -7.2%
O=C(NS(=O)(=O)c1ccccc1)c1ccccc1F | -4.29%
CNC(=O)Cn1ccc2ccc(NC(=O)C(C)C)cc21 | -16.4%
Cc1nsc(NC2CCN(c3ccccc3OC(F)F)C2=O)n1 (configuration not stated) | 9.92%
CCOc1cccc2c1OCC(C(=O)NS(=O)(=O)c1ccc(Br)s1)=C2 | 14.6%
Cc1nc(C2CCCN2Cc2nc(C)c(C)o2)no1 (configuration not stated) | -2.71%
O=S(=O)(CC1CCCCO1)Nc1cnn(Cc2ccccc2)c1 (configuration not stated) | -7.62%
CN(C)CCNCC1COCc2c(-c3ccnn3C)nnn2C1 (configuration not stated) | 16.1%
c1ccc(Oc2cc(CNCC3CNc4ccnn4C3)ccn2)cc1 (configuration not stated) | -2.96%
CCCN1CCC(c2nc3ccc(NCc4ccccc4)cn3n2)CC1 | -1.96%
Cc1c[nH]c(C(=O)N2C[C@H]3CC[C@@H]2CN(Cc2cscn2)C3)n1 | -15.6%
CN(c1ccc(C(=O)NCCN2CCOCC2)c(Cl)c1)S(C)(=O)=O | -1.41%
Cc1nn(C)c(C)c1Cc1nc(N(C)C)no1 | -0.362%
O=C(c1cnco1)N1CCC(Cc2cnc3ccccc3c2)CC1 | -1.49%
O=C1CC[C@H](C(=O)Nc2cnn(-c3ccccc3Br)c2)N1 | -16.8%
Cc1cnn(CC2CCCN2Cc2nc3ccccc3c(=O)[nH]2)c1 (configuration not stated) | -7.22%
CN(C)c1cccc(C2CCCN2c2nc3c(cnn3C)c(=O)[nH]2)c1 (configuration not stated) | 15.4%

Compound | cytotoxicity at 70.5 h
O=C(c1ccc(F)cc1)N1CCOC(c2nc(-c3ncccn3)no2)C1 (configuration not stated) | -5.53%
O=C(COc1ccccc1F)NCC(O)(c1ccccc1)C1CC1 (configuration not stated) | -13.8%
Cc1sc(C(=O)NS(C)(=O)=O)cc1-c1ccc(F)cc1 | -4.18%
C[C@H]1CN(Cc2cnn(C)c2)C[C@@]12CCN(Cc1cccnc1)C2=O | -7.75%
CNC(=O)C1CCCN(C(=O)c2ccccc2-n2cc(CN)cn2)C1 (configuration not stated) | 2.43%
CCOC(=O)[C@H]1CNC[C@@H]1C(=O)OCC | 3.89%
O=S(=O)(Cc1ccccc1)NCc1ccco1 | -5.52%
CC(=O)c1ccc(OCC(=O)c2cccn2C)cc1 | -0.625%
CS(=O)(=O)N[C@@H]1CCN(Cc2cccnc2)[C@H]1Cc1cccnc1 | 13.6%
COC(=O)c1cccc(C(=O)N2CCCC(n3cncn3)C2)c1 (configuration not stated) | -8.97%
Cc1ncc(CNC(=O)Cc2ccc(Cl)cc2)c(C2CCCN2C)n1 (configuration not stated) | -16.7%
Cc1csc(C(C)(C)NCc2ncc(-c3ccccc3)o2)n1 | -7.99%
Cc1nnsc1CN1C[C@H]2CC[C@@H]1CN(Cc1ccc(F)cc1)C2 | 27.1%
Cc1ncsc1COC(=O)c1cccc2c1OCCO2 | -5.64%
COc1ccc(C(C)Nc2ncc(C(N)=O)cc2Cl)c(OC)c1 (configuration not stated) | -4.47%
COCc1ccc(CN[C@H]2C[C@@H](Cc3cc(CCO)on3)C2(C)C)o1 | -1.61%
CCCS(=O)(=O)Nc1ccc2c(c1)OCC(C)(C)C(=O)N2C | 7.24%
CN(C)c1cc2c(nn1)CCN(C(=O)Cc1ccc3c(c1)CCO3)C2 | -5.69%
CCOCCNCc1cc(O)c2cc(C)ccc2n1 | -5.02%
CCC(=O)NCC(=O)N(C)C(c1ccc(Cl)cc1)c1cccnc1 (configuration not stated) | -1.51%
CC(C)Cc1cc(NC(=O)N2CCC(Oc3cccnc3)C2)n(C)n1 (configuration not stated) | 5.38%
CNCC(=O)N1CCCC(c2ccnc(Nc3cnccn3)n2)C1 (configuration not stated) | -9.17%
CC(C)c1nnc(NC(=O)NCc2cccnc2NCCN(C)C)s1 | 4.5%

Compound | cytotoxicity at 70.5 h
CCOC(=O)[C@]12CCCN(Cc3nccs3)C[C@H]1CN(C(C)=O)C2 | -13.3%
CC(NC(=O)CCc1nc(-c2nnc[nH]2)no1)c1ccc(F)cc1F (configuration not stated) | 4.47%
CCC(O)Cn1nc(CCSC)nc1-c1ccc2[nH]ccc2c1 (configuration not stated) | 1.48%
O=C(Cc1ccon1)N1CCN(c2ccc(F)cc2Cl)CC1 | -6.01%
O[C@H]1CCN(CC2CC2)[C@H]1Cc1ccncc1 | -4.14%
CCOc1ncc(NC(=O)c2ccccn2)c(OCC)n1 | -13.3%
CN(C)S(=O)(=O)c1ccc(CNC(=O)C2CC(=O)N(C(C)(C)C)C2)cc1 (configuration not stated) | -1.42%
OCCNC1CSCCc2ccccc21 (configuration not stated) | 33.4%
COCC(=O)N1CCCC(c2cc(C(F)F)n3ncnc3n2)C1 (configuration not stated) | -2.53%
COc1c(CNCCNC(=O)c2ccccc2)c(C)nn1C | -1.1%
COCc1nnn2c1CN(C(=O)c1c[nH]cn1)CCC2 | 0.823%
O=C(NCCCOC1CCOC1)NC(C1CC1)C1CC1 (configuration not stated) | 5.31%
O=C(CCc1ccc(Br)cc1F)NS(=O)(=O)c1ccc2c(c1)OCCO2 | -3.13%
O=C([C@@H]1CC[C@@H]2[C@@H](CCN2c2ncccn2)O1)N1CCCO1 | 11.8%
Cc1cccc(CN2CCCC2(C(N)=O)c2cnccn2)n1 (configuration not stated) | 19%
CC(C)c1n[nH]c(C2CN(C(=O)c3cc(Cl)c[nH]3)CCO2)n1 (configuration not stated) | -8.73%
O=C(O)[C@]12CCCN(C3CCOC3)C[C@H]1CN(c1nncs1)C2 (some centres not stated) | -7.95%
CNC(=O)C1CN(C(=O)c2cccs2)CCN(S(C)(=O)=O)C1 (configuration not stated) | -2.89%
CC(C)c1nnc(CNc2nc(-c3cccnc3)nc3c2CCC3)n1C | -1.97%
O=C(O)[C@@]12CN(c3cnccn3)C[C@@H]1CN(C1CCOCC1)C2 | -4.6%
